The values below come from patent US20050085651A1, “Crystal of N-long-chain acylglycine salt, method of production thereof, and detergent composition using said crystal” (AJINOMOTO CO., INC., priority 2003, published 2005).

Format in all cases: physicochemical
The nature of series [1]: Average particle diameter by sieving. Here is the method: Using the GILSONIC AUTOSIEVER (GA-6, manufactured by GILSON), an about 2 g coarsely milled sample (pass through 425μ mesh) was sieved for 5 minutes and the resulting particles were classified by size; the average particle diameter was calculated from the weights of particles in respective classes.
(§1) The milled products of the crystals obtained in Examples 1-3 and the powder obtained in Comparative Example 2 were examined for dusting (scattering) and water solubility and dispersibility. Also, these powders were sieved and their average particle diameters were determined.

Series [2] in a line: Water solubility: time taken to dissolve powder in water. The note with it: second Ex. 1 powder, average particle size 20 μm; 1.5 g in 100 g of water at 30° C. Here is the method:
as §1
In this test, solubility is defined as time taken to dissolve 1.5 g of powder in 100 g of water at 30° C.

Series [3] is described as follows: Scattering (dusting) test of dropped powder. The note with it: second Ex. 1 powder, average particle size 20 μm; relative ratio to Comparative Example 2. As to the method: as §1
Scattering was quantified as described below. A 5 g powder sample was dropped by a distance of 1.2 m from the top of a cylinder (diameter: 12.5 cm). Two seconds after the drop, the scattered powder was sucked from the inlet in the base of the cylinder for 6 seconds using a blower; the powder caught by filter paper (GB100R, manufactured by Advantest Corporation) on the blower surface was weighed. This weight was expressed as a relative ratio to the powder weight in Comparative Example 2.

Series [4] is described as follows: Water dispersibility (lumping) evaluated by five panelists. The note with it: second Ex. 1 powder, average particle size 20 μm. As to the method:
as §1
Dispersibility was evaluated by five panelists. A 1-gram powder sample was placed in the palm of each panelist and rubbed and examined for lumping in the presence of a small amount of water. Findings were evaluated using a three-grade rating system: good (O) for no lumping, acceptable (Δ) for a small amount of lumping, and poor (x) for a large amount of lumping.

[5] abbreviates: milled product of crystal (Com. Ex. 2: spray-dried powder), sieved.

With `CCCCCCCCCCCC(=O)NCC(=O)[O-].[Na+]` [Ex. 1, N-lauroylglycine Sodium Salt], the results for the Average particle size in series [1] (setting [5]) and in series [1] (second Ex. 1 powder (finer)) were 85 μm and 20 μm, respectively. In series [2], the Dissolution rate was 341 s. For the same compound, the Scattering in series [3] came to 0.87. Besides, the Dispersibility entry in series [4] was “◯”.

In turn, `CCCCCCCCCCCCCC(=O)NCC(=O)[O-].[Na+]` [Ex. 3, N-myristoylglycine Sodium Salt] came in with an Average particle size in series [1] (setting [5]) of 87 μm.
